Data as given in ChEMBL document CHEMBL1125442, “Amide bond replacements incorporated into CCK-B selective "dipeptoids"” (J Med Chem, 1992).
“And” between values parts separate entries of the source, which are not always exact repeats. Identical values can stand only once.

How the values were obtained:
[1] = biological target: Gastrin/cholecystokinin type B receptor (Mus musculus) (UniProt P56481); assay: Inhibition of [125I]CCK-8 binding to cholecystokinin type B receptor in the mouse cerebral cortex
[2] = Selectivity ratio defined as the ratio of IC50(CCK-A)/IC50(CCK-B)
[3] = biological target: Cholecystokinin receptor type A (Rattus norvegicus) (UniProt P30551); assay: Inhibition of [125I]CCK-8 binding to cholecystokinin type A receptor in the rat pancreas

IC50 [1] [nM] | Ratio [2] | IC50 [3] [nM] | SMILES
71.2 | 4.9 | 351 | COC(=O)CCC(=O)N[C@H](COC(=O)C(C)(Cc1c[nH]c2ccccc12)NC(=O)OC1[C@H]2C[C@@H]3C[C@@H](C[C@H]1C3)C2)c1ccccc1 (some centres not stated)
123 | 6.2 | 757 | CN(CCc1ccccc1)C(=O)C(C)(Cc1c[nH]c2ccccc12)NC(=O)OC1[C@H]2C[C@@H]3C[C@@H](C[C@H]1C3)C2 (some centres not stated)
8690 | 2.2 | 19500 | CC(CCCCc1ccccc1)(Cc1c[nH]c2ccccc12)NC(=O)OC1[C@H]2C[C@@H]3C[C@@H](C[C@H]1C3)C2 (some centres not stated)
1890 | 1.6 | 2950 | O=C(NC(Cc1c[nH]c2ccccc12)C(=O)OC(CO)Cc1ccccc1)OC1[C@H]2C[C@@H]3C[C@@H](C[C@H]1C3)C2 (some centres not stated)
1270 | 0.85 | 1080 | CC(Cc1c[nH]c2ccccc12)(CN(CCc1ccccc1)C(=O)CCC(=O)O)NC(=O)OC1[C@H]2C[C@@H]3C[C@@H](C[C@H]1C3)C2 (some centres not stated)
 | 1.9 |  | CC(Cc1c[nH]c2ccccc12)(NC(=O)OC1[C@H]2C[C@@H]3C[C@@H](C[C@H]1C3)C2)/C(S)=N/CCc1ccccc1 (some centres not stated)
1630 | 2.3 | 670 | CCOC(=O)CCC(=O)N(CCc1ccccc1)CC(C)(Cc1c[nH]c2ccccc12)NC(=O)OC1[C@H]2C[C@@H]3C[C@@H](C[C@H]1C3)C2 (some centres not stated)
1460 | 0.74 | 1080 | CN(C(=O)C(Cc1c[nH]c2ccccc12)NC(=O)OC1[C@H]2C[C@@H]3C[C@@H](C[C@H]1C3)C2)C(CO)Cc1ccccc1 (some centres not stated)
852 | 1.3 | 1080 | O=C(NC(Cc1c[nH]c2ccccc12)C(=O)NC(CO)Cc1ccccc1)OC1[C@H]2C[C@@H]3C[C@@H](C[C@H]1C3)C2 (some centres not stated)
863 | 4.1 | 3530 | CCOC(=O)CCCCCC(=O)N(CCc1ccccc1)CC(C)(Cc1c[nH]c2ccccc12)NC(=O)OC1[C@H]2C[C@@H]3C[C@@H](C[C@H]1C3)C2 (some centres not stated)
595 |  | 1230 | CC(Cc1c[nH]c2ccccc12)(NC(=O)OC1[C@H]2C[C@@H]3C[C@@H](C[C@H]1C3)C2)C(O)CCCc1ccccc1 (some centres not stated) [listing 1 of 3 here]
 | 1.3 and 2.1 |  | CC(Cc1c[nH]c2ccccc12)(NC(=O)OC1[C@H]2C[C@@H]3C[C@@H](C[C@H]1C3)C2)C(O)CCCc1ccccc1 (some centres not stated) [listing 2 of 3 here]
547 | 2 | 1070 | CC(Cc1c[nH]c2ccccc12)(NC(=O)OC1[C@H]2C[C@@H]3C[C@@H](C[C@H]1C3)C2)C(=O)OCCc1ccccc1 (some centres not stated)
11500 | 0.11 | 1250 | O=C(NC(CNC(CO)Cc1ccccc1)Cc1c[nH]c2ccccc12)OC1[C@H]2C[C@@H]3C[C@@H](C[C@H]1C3)C2 (some centres not stated)
808 |  | 1500 | CC(Cc1c[nH]c2ccccc12)(NC(=O)OC1[C@H]2C[C@@H]3C[C@@H](C[C@H]1C3)C2)C(=S)NCCc1ccccc1 (some centres not stated)
1970 |  | 2620 | CC(Cc1c[nH]c2ccccc12)(NC(=O)OC1[C@H]2C[C@@H]3C[C@@H](C[C@H]1C3)C2)C(O)CCCc1ccccc1 (some centres not stated) [listing 3 of 3 here]
1590 |  | 1980 | O=C(NC(Cc1c[nH]c2ccccc12)C(=S)NC(CO)Cc1ccccc1)OC1[C@H]2C[C@@H]3C[C@@H](C[C@H]1C3)C2 (some centres not stated)
932 | 1.3 | 1190 | CC(Cc1c[nH]c2ccccc12)(NC(=O)OC1[C@H]2C[C@@H]3C[C@@H](C[C@H]1C3)C2)C(=O)SCCc1ccccc1 (some centres not stated)
 | 1.2 |  | O=C(NC(Cc1c[nH]c2ccccc12)/C(S)=N/C(CO)Cc1ccccc1)OC1[C@H]2C[C@@H]3C[C@@H](C[C@H]1C3)C2 (some centres not stated)
